According to patent US5948791A, “Quinoline derivatives for treating malaria” (Hoffmann-La Roche Inc., priority 1995, dated 1999):
Counter-ions that a name gives are not always drawn. Like-named read-outs stand apart in the source and are kept apart here.

How the values were obtained:
[1] = tested on: Plasmodium falciparum strain NF54; assay: Growth inhibition of Plasmodium falciparum NF54 (chloroquine-sensitive) in vitro, [G-3H]-hypoxanthin incorporation; type: cell-based; conditions: chloroquine-sensitive strain NF54, 72 h, read-out: IC50 for P. falciparum NF54
Summary of the method: (§1)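 Asynchronous intraerythrocytic cultures in human A+ erythrocytes (0.7% parasitemia, 2.5% suspension) in RPMI 1640 with HEPES, NaHCO3 and human serum, exposed to compound titrated over 6-7 steps for 72 h at 37° C, 3% O2. Growth by [G-3H]-hypoxanthin incorporation against untreated controls; IC50 by logit regression.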

Plasmodium berghei = assay: animal or person; type: in vivo, Plasmodium berghei (strain ANKA) in mice; conditions: Plasmodium berghei, mice, blood smears 48 h after treatment
Summary of the method: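 Male albino mice (~25 g) infected i.v. on D0 with P. berghei ANKA (0.2 ml of 10^8 parasitized erythrocytes/ml); single s.c. and p.o. dose 24 h post-infection, 10 mg/kg screen then titration.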

Plasmodium falciparum K1 = assay: Growth inhibition of Plasmodium falciparum K1 (chloroquine-resistant) in vitro, [G-3H]-hypoxanthin incorporation; type: cell-based, Plasmodium falciparum (strain K1); conditions: for IC50: Plasmodium falciparum, K1, 72 h, read-out: IC50 for P. falciparum K1; for Resistance index: ratio of the IC50 for K1 and the IC50 for NF54
Summary of the method: as §1

[2] = po, single peroral dose of 10 mg/kg, read-out: Growth inhibition in % after po administration (GI%, percentage reduction of the parasitemia)
[3] = sc, single subcutaneous dose of 10 mg/kg, read-out: Growth inhibition in % after sc administration (GI%, percentage reduction of the parasitemia)

SMILES: COc1cccc(CNC(C)(C)CNc2ccnc3cc(Cl)ccc23)c1O.Cl.Cl [Example 30, N1-(7-Chloro-quinolin-4-yl)-N2-(2-hydroxy-3-methoxy-benzyl)-2-methyl-propane-1,2-diamine dihydrochloride]
- IC50 [1]: 0.0067 µg/mL
- inhibition in vivo at 10 mg/kg (Plasmodium berghei; [2]): 70%
- inhibition in vivo at 10 mg/kg (Plasmodium berghei; [3]): 95%
- IC50 (Plasmodium falciparum K1): 0.0114 µg/mL
- Resistance index (Plasmodium falciparum K1): 1.7

SMILES: COc1ccc(O)c(CNC(C)(C)CNc2ccnc3cc(Cl)ccc23)c1.Cl.Cl [Example 31, N1-(7-Chloro-quinolin-4-yl)-N2-(2-hydroxy-5-methoxy-benzyl)-2-methyl-propane-1,2-diamine dihydrochloride]
- IC50 [1]: 0.0065 µg/mL
- inhibition in vivo at 10 mg/kg (Plasmodium berghei; [2]): 39%
- inhibition in vivo at 10 mg/kg (Plasmodium berghei; [3]): 98%
- IC50 (Plasmodium falciparum K1): 0.0099 µg/mL
- Resistance index (Plasmodium falciparum K1): 1.5

SMILES: COc1cc(CNC(C)(C)CNc2ccnc3cc(Cl)ccc23)ccc1O.Cl.Cl [Example 33, N1-(7-Chloro-quinolin-4-yl)-N2-(4-hydroxy-3-methoxy-benzyl)-2-methyl-propane-1,2-diamine dihydrochloride]
- IC50 [1]: 0.0063 µg/mL
- inhibition in vivo at 10 mg/kg (Plasmodium berghei; [2]): 10%
- inhibition in vivo at 10 mg/kg (Plasmodium berghei; [3]): 97%
- IC50 (Plasmodium falciparum K1): 0.0071 µg/mL
- Resistance index (Plasmodium falciparum K1): 1.1

SMILES: COc1cc(CNC(C)(C)CNc2ccnc3cc(Cl)ccc23)cc(OC)c1.Cl.Cl [Example 40, N1-(7-Chloro-quinolin-4-yl)-N2-(3,5-dimethoxy-benzyl)-2-methyl-propane-1,2-diamine dihydrochloride]
- IC50 [1]: 0.0036 µg/mL
- inhibition in vivo at 10 mg/kg (Plasmodium berghei; [2]): 84%
- inhibition in vivo at 10 mg/kg (Plasmodium berghei; [3]): 95%
- IC50 (Plasmodium falciparum K1): 0.0071 µg/mL
- Resistance index (Plasmodium falciparum K1): 2.0

SMILES: CC(C)(CNc1ccnc2cc(Cl)ccc12)NCc1ccc(Oc2ccccc2)cc1.Cl.Cl [Example 43, N1-(7-Chloro-quinolin-4-yl)-N2-(4-phenoxy-benzyl)-2-methyl-propane-1,2-diamine dihydrochloride]
- IC50 [1]: 0.016 µg/mL
- inhibition in vivo at 10 mg/kg (Plasmodium berghei; [2]): 30%
- inhibition in vivo at 10 mg/kg (Plasmodium berghei; [3]): 98%
- IC50 (Plasmodium falciparum K1): 0.0181 µg/mL
- Resistance index (Plasmodium falciparum K1): 1.1

SMILES: CSc1ccc(CNC(C)(C)CNc2ccnc3cc(Cl)ccc23)cc1.Cl.Cl [Example 44, N1-(7-Chloro-quinolin-4-yl)-N2-(4-methylsulphanyl-benzyl)-2-methyl-propane-1,2-diamine dihydrochloride]
- IC50 [1]: 0.0108 µg/mL
- inhibition in vivo at 10 mg/kg (Plasmodium berghei; [2]): 98%
- inhibition in vivo at 10 mg/kg (Plasmodium berghei; [3]): 99%
- IC50 (Plasmodium falciparum K1): 0.0154 µg/mL
- Resistance index (Plasmodium falciparum K1): 1.4

SMILES: CN(C)c1ccc(CNC(C)(C)CNc2ccnc3cc(Cl)ccc23)cc1.Cl.Cl [Example 45, N1-(7-Chloro-quinolin-4-yl)-N2-(4-dimethylamino-benzyl)-2-methyl-propane-1,2-diamine dihydrochloride]
- IC50 [1]: 0.0123 µg/mL
- inhibition in vivo at 10 mg/kg (Plasmodium berghei; [2]): 98%
- inhibition in vivo at 10 mg/kg (Plasmodium berghei; [3]): 97%
- IC50 (Plasmodium falciparum K1): 0.0125 µg/mL
- Resistance index (Plasmodium falciparum K1): 1.0

SMILES: CCN(CC)c1ccc(CNC(C)(C)CNc2ccnc3cc(Cl)ccc23)cc1.Cl.Cl.Cl [Example 46, N1-(7-Chloro-quinolin-4-yl)-N2-(4-diethylamino-benzyl)-2-methyl-propane-1,2-diamine trihydrochloride]
- IC50 [1]: 0.0101 µg/mL
- inhibition in vivo at 10 mg/kg (Plasmodium berghei; [2]): 99.7%
- inhibition in vivo at 10 mg/kg (Plasmodium berghei; [3]): 99%
- IC50 (Plasmodium falciparum K1): 0.0126 µg/mL
- Resistance index (Plasmodium falciparum K1): 1.2

SMILES: CC(C)(CNc1ccnc2cc(Cl)ccc12)NCc1ccc([N+](=O)[O-])cc1 [Example 47, N1-(7-Chloro-quinolin-4-yl)-N2-(4-nitro-benzyl)-2-methy-propane-1,2-diamine dihydrochloride]
- IC50 [1]: 0.0094 µg/mL
- inhibition in vivo at 10 mg/kg (Plasmodium berghei; [2]): 70%
- inhibition in vivo at 10 mg/kg (Plasmodium berghei; [3]): 79%
- IC50 (Plasmodium falciparum K1): 0.0136 µg/mL
- Resistance index (Plasmodium falciparum K1): 1.4

SMILES: CC(C)(CNc1ccnc2cc(Cl)ccc12)NCc1cccc(C#N)c1.Cl.Cl [Example 48, N1-(7-Chloro-quinolin-4-yl)-N2-(3-cyano-benzyl)-2-methyl-propane-1,2-diamine dihydrochloride]
- IC50 [1]: 0.0123 µg/mL
- inhibition in vivo at 10 mg/kg (Plasmodium berghei; [2]): 99.9%
- inhibition in vivo at 10 mg/kg (Plasmodium berghei; [3]): 99.9%
- IC50 (Plasmodium falciparum K1): 0.0159 µg/mL
- Resistance index (Plasmodium falciparum K1): 1.3

SMILES: CC(C)(CNc1ccnc2cc(Cl)ccc12)NCc1ccc(C#N)cc1.Cl.Cl [Example 49, N1-(7-Chloro-quinolin-4-yl)-N2-(4-cyano-benzyl)-2-methyl-propane-1,2-diamine dihydrochloride]
- IC50 [1]: 0.0082 µg/mL
- inhibition in vivo at 10 mg/kg (Plasmodium berghei; [2]): 88%
- inhibition in vivo at 10 mg/kg (Plasmodium berghei; [3]): 87%
- IC50 (Plasmodium falciparum K1): 0.0124 µg/mL
- Resistance index (Plasmodium falciparum K1): 1.5

SMILES: CC(C)c1ccc(CNC(C)(C)CNc2ccnc3cc(Cl)ccc23)cc1.Cl.Cl [Example 50, N1-(7-Chloro-quinolin-4-yl)-N2-(4-isopropyl-benzyl)-2-methyl-propane-1,2-diamine dihydrochloride]
- IC50 [1]: 0.0142 µg/mL
- inhibition in vivo at 10 mg/kg (Plasmodium berghei; [2]): 93%
- inhibition in vivo at 10 mg/kg (Plasmodium berghei; [3]): 96%
- IC50 (Plasmodium falciparum K1): 0.0143 µg/mL
- Resistance index (Plasmodium falciparum K1): 1.0

SMILES: CC(C)(CNc1ccnc2cc(Cl)ccc12)NCc1ccc(-c2ccccc2)cc1 [Example 51, N1-(7-Chloro-quinolin-4-yl)-N2-(bipenyl-4-yl-methyl)-2-methyl-propane-1,2-diamine dihydrochloride]
- IC50 [1]: 0.0123 µg/mL
- inhibition in vivo at 10 mg/kg (Plasmodium berghei; [2]): 82%
- inhibition in vivo at 10 mg/kg (Plasmodium berghei; [3]): 99%
- IC50 (Plasmodium falciparum K1): 0.0091 µg/mL
- Resistance index (Plasmodium falciparum K1): 0.7

SMILES: CC(C)(CNc1ccnc2cc(Cl)ccc12)NCc1ccccn1.Cl.Cl.Cl [Example 56, N1-(7-Chloro-quinolin-4-yl)-N2-(pyridin-2-yl-methyl)-2-methyl-propane-1,2-diamine trihydrochloride]
- IC50 [1]: 0.0313 µg/mL
- inhibition in vivo at 10 mg/kg (Plasmodium berghei; [2]): 98%
- inhibition in vivo at 10 mg/kg (Plasmodium berghei; [3]): 97%
- IC50 (Plasmodium falciparum K1): 0.0537 µg/mL
- Resistance index (Plasmodium falciparum K1): 1.7

SMILES: CC(C)(CNc1ccnc2cc(Cl)ccc12)NCc1cccnc1.Cl.Cl.Cl [Example 57, N1-(7-Chloro-quinolin-4-yl)-N2-(pyridin-3-yl-methyl)-2-methyl-propane-1,2-diamine trihydrochloride]
- IC50 [1]: 0.0217 µg/mL
- inhibition in vivo at 10 mg/kg (Plasmodium berghei; [2]): 99.4%
- inhibition in vivo at 10 mg/kg (Plasmodium berghei; [3]): 99.7%
- IC50 (Plasmodium falciparum K1): 0.0282 µg/mL
- Resistance index (Plasmodium falciparum K1): 1.3

SMILES: CC(C)(CNc1ccnc2cc(Cl)ccc12)NCc1ccnc2ccccc12.Cl.Cl.Cl [Example 58, N1-(7-Chloro-quinolin-4-yl)-N2-(quinolin-4-yl-methyl)-2-methyl-propane-1,2-diamine trihydrochloride]
- IC50 [1]: 0.0293 µg/mL
- inhibition in vivo at 10 mg/kg (Plasmodium berghei; [2]): 72%
- inhibition in vivo at 10 mg/kg (Plasmodium berghei; [3]): 88%
- IC50 (Plasmodium falciparum K1): 0.069 µg/mL
- Resistance index (Plasmodium falciparum K1): 2.4

SMILES: Cl.Cl.Clc1ccc2c(N[C@H]3CCCC[C@@H]3NCc3ccccc3)ccnc2c1 [Example 60, (1S,2S)-N1-(7-Chloro-quinolin-4-yl)-N2-(benzyl)-cyclohexane-1,2-diamine hydrochloride (1:2)]
- IC50 [1]: 0.0077 µg/mL
- inhibition in vivo at 10 mg/kg (Plasmodium berghei; [2]): 67%
- inhibition in vivo at 10 mg/kg (Plasmodium berghei; [3]): 87%
- IC50 (Plasmodium falciparum K1): 0.0122 µg/mL
- Resistance index (Plasmodium falciparum K1): 1.6

SMILES: Cl.Cl.Clc1ccc(CN[C@H]2CCCC[C@@H]2Nc2ccnc3cc(Cl)ccc23)cc1 [Example 61, (1S,2S)-N1-(7-Chloro-quinolin-4-yl)-N2-(4-chloro-benzyl)-cyclohexane-1,2-diamine dihydrochloride]
- IC50 [1]: 0.0127 µg/mL
- inhibition in vivo at 10 mg/kg (Plasmodium berghei; [2]): 99.6%
- inhibition in vivo at 10 mg/kg (Plasmodium berghei; [3]): 99.6%
- IC50 (Plasmodium falciparum K1): 0.0112 µg/mL
- Resistance index (Plasmodium falciparum K1): 0.9

SMILES: Cl.Cl.Clc1ccc(CN[C@H]2CCCC[C@@H]2Nc2ccnc3cc(Cl)ccc23)c(Cl)c1 [Example 62, (1S,2S)-N1-(7-Chloro-quinolin-4-yl)-N2-(2,4-dichloro-benzyl)-cyclohexane-1,2-diamine dihydrochloride]
- IC50 [1]: 0.0508 µg/mL
- inhibition in vivo at 10 mg/kg (Plasmodium berghei; [2]): 99.8%
- inhibition in vivo at 10 mg/kg (Plasmodium berghei; [3]): 99.8%
- IC50 (Plasmodium falciparum K1): 0.0642 µg/mL
- Resistance index (Plasmodium falciparum K1): 1.3

SMILES: Cl.Cl.Clc1ccc2c(N[C@H]3CCCC[C@@H]3NCc3ccc(Cl)c(Cl)c3)ccnc2c1 [Example 63, (1S,2S)-N1-(7-Chloro-quinolin-4-yl)-N2-(3,4-dichloro-benzyl)-cyclohexane-1,2-diamine dihydrochloride]
- IC50 [1]: 0.0101 µg/mL
- inhibition in vivo at 10 mg/kg (Plasmodium berghei; [2]): 99.9%
- inhibition in vivo at 10 mg/kg (Plasmodium berghei; [3]): 99.9%
- IC50 (Plasmodium falciparum K1): 0.0146 µg/mL
- Resistance index (Plasmodium falciparum K1): 1.4

SMILES: Cl.Cl.FC(F)(F)c1ccc(CN[C@H]2CCCC[C@@H]2Nc2ccnc3cc(Cl)ccc23)c(C(F)(F)F)c1 [Example 64, (1S,2S)-N1-(7-Chloro-quinolin-4-yl)-N2-(2,4-bis-trifluoromethyl-benzyl)-cyclohexane-1,2-diamine dihydrochloride]
- IC50 [1]: 0.0357 µg/mL
- inhibition in vivo at 10 mg/kg (Plasmodium berghei; [2]): 87%
- inhibition in vivo at 10 mg/kg (Plasmodium berghei; [3]): 66%
- IC50 (Plasmodium falciparum K1): 0.0823 µg/mL
- Resistance index (Plasmodium falciparum K1): 2.3

SMILES: CN(C)c1ccc(CN[C@H]2CCCC[C@@H]2Nc2ccnc3cc(Cl)ccc23)cc1.Cl.Cl [Example 66, (1S,2S)-N1-(7-Chloro-quinolin-4-yl)-N2-(4-dimethylamino-benzyl)-cyclohexane-1,2-diamine dihydrochloride]
- IC50 [1]: 0.0056 µg/mL
- inhibition in vivo at 10 mg/kg (Plasmodium berghei; [2]): 99.9%
- inhibition in vivo at 10 mg/kg (Plasmodium berghei; [3]): 99.6%
- IC50 (Plasmodium falciparum K1): 0.0105 µg/mL
- Resistance index (Plasmodium falciparum K1): 1.9

SMILES: Cl.Cl.N#Cc1ccc(CN[C@H]2CCCC[C@@H]2Nc2ccnc3cc(Cl)ccc23)cc1 [Example 67, (1S,2S)-N1-(7-Chloro-quinolin-4-yl)-N2-(4-cyano-benzyl)-cyclohexane-1,2-diamine dihydrochloride]
- IC50 [1]: 0.0091 µg/mL
- inhibition in vivo at 10 mg/kg (Plasmodium berghei; [2]): 99%
- inhibition in vivo at 10 mg/kg (Plasmodium berghei; [3]): 99%
- IC50 (Plasmodium falciparum K1): 0.023 µg/mL
- Resistance index (Plasmodium falciparum K1): 2.5
